Test results: patent publication US7586003B2, “Derivatives of seleno-amino acids” (Zinpro Corporation, priority 2005, dated 2009)

Assays:
[1] = Solubility in water; details: in words; partly relative to parent seleno-amino acid
[2] = Stability compared with parent seleno-amino acid
[3] = test system: glutathione peroxidase; test: Whole-blood glutathione peroxidase activity of lactating cows fed selenium premixes; format: in vivo
Experimental: (§1) Three premixes were prepared for use in a field study in lactating cows. One of the premixes contained no additional source of selenium and was intended to serve as the placebo. The second contained sodium selenite and the third contained N-Succinyl L-Selenomethionine (Compound 2). Each of the premixes was prepared by mixing an amount of the selenium source with sufficient amount of finely ground sugar to contain 250 ppm of selenium. Each premix was color identified by the incorporation of a solution of a food color during formulation and given a letter designation by random selection. […] This was done to avoid any possible biases in the interpretation of the results of the feeding experiments. Thirty lactating cows were fed one of the three premixes as a daily topdress. The effect of these selenium sources on tissue selenium content and whole blood glutathione peroxidase activity were determined. All cows were fed a total mixed diet devoid of added selenium for an initial 8-week depletion period. Daily rations were topdressed with an amount of the premix to provide 7.5 mg selenium. Treatments were continued for 8-week followed by a 4-week depletion period. Milk samples were collected on one day per week beginning the week prior to the first depletion period (Week 0) and continuing through the 20 weeks of the experiment. The selenium content of the milk serum obtained after the samples were defatted was determined. Blood samples were collected on one day per week beginning the week prior to the first depletion period (Week 0) and at four week intervals throughout the experiment (Weeks 8, 12, 16 and 20 in Table 1). The blood samples were draw into trace-element free vacutainer tubes containing an anticoagulant. Aliquots of whole blood were analyzed for selenium and glutathione peroxidase activity. Other aliquots of blood were centrifuged to harvest plasma and the selenium content of the plasma samples was determined. Liver samples were obtained by biopsy on one day per week beginning the week prior to the first depletion period (Week 0) and at four week intervals throughout the experiment (Weeks 8, 12, 16 and 20 in Table 1). Liver samples were analyzed for selenium content. […] The dramatic changes in the selenium concentrations in response to changes in dietary intake of selenium indicate that these tissues are sensitive indicators of the dietary selenium status of the lactating cows. […] The changes in the selenium concentration and glutathione peroxidase activity (GPX) in whole blood in response to changing dietary selenium intake were less sensitive than those in milk serum, plasma and liver.

[4] = Tissue selenium content of lactating cows fed selenium premixes (milk serum, plasma, liver, whole blood); format: in vivo; details: for Liver Se / Milk Serum Se / Plasma Se / Whole Blood Se: female, cow
Experimental: as §1

[5] = Wk 0, before first depletion period
[6] = Wk 8, end of 8-week depletion, before treatment
[7] = Wk 12, 4 weeks of topdress providing 7.5 mg selenium daily
[8] = Wk 16, 8 weeks of topdress providing 7.5 mg selenium daily
[9] = Wk 20, end of 4-week second depletion

SMILES: C[Se]CC[C@@H]1NC(=O)NC1=O [Compound 4, (S)-5-(2-(methylselanyl)ethyl)midazolidine-2,4-dione]
- Solubility in water [1]: less soluble
- Stability relative to parent seleno-amino acid [2]: appears to be more stable than the parent seleno-amino acid

SMILES: O=[Se](O)O [Sodium Selenite, reference compound]
- Whole Blood GPX [3, 5]: 17.3 EU/ml
- Whole Blood GPX [3, 6]: 17.9 EU/ml
- Whole Blood GPX [3, 7]: 17.6 EU/ml
- Whole Blood GPX [3, 8]: 16.1 EU/ml
- Whole Blood GPX [3, 9]: 17.9 EU/ml
- Change of selenium concentrations in milk serum, plasma and liver on supplemented diet ([4]; Wk12 & Wk 16, 7.5 mg selenium daily): progressive and significant increases

SMILES: C[Se]CC[C@H](NC(=O)CCC(=O)O)C(=O)O [Compound 2, (S)-4-(1-carboxy-3-(methylselanyl)propylamino)-4-oxobutanoic Acid]
- Whole Blood GPX [3, 5]: 18.2 EU/ml
- Whole Blood GPX [3, 6]: 19.2 EU/ml
- Whole Blood GPX [3, 7]: 18.7 EU/ml
- Whole Blood GPX [3, 8]: 17.5 EU/ml
- Whole Blood GPX [3, 9]: 19.8 EU/ml
- Liver Se ([4]; in vivo, 0 week of experiment): 1151 ng/g dry wt.
- Milk Serum Se ([4]; in vivo, 0 week of experiment): 14.96 ng/mL
- Plasma Se ([4]; in vivo, 0 week of experiment): 63.5 ng/mL
- Whole Blood Se ([4]; in vivo, 0 week of experiment): 144.0 ng/mL
- Liver Se ([4]; in vivo, 8 week of experiment): 690 ng/g dry wt.
- Milk Serum Se ([4]; in vivo, 8 week of experiment): 4.30 ng/mL
- Plasma Se ([4]; in vivo, 8 week of experiment): 43.6 ng/mL
- Whole Blood Se ([4]; in vivo, 8 week of experiment): 136.3 ng/mL
- Liver Se ([4]; in vivo, 20 week of experiment): 1003 ng/g dry wt.
- Milk Serum Se ([4]; in vivo, 20 week of experiment): 10.91 ng/mL
- Plasma Se ([4]; in vivo, 20 week of experiment): 52.2 ng/mL
- Whole Blood Se ([4]; in vivo, 20 week of experiment): 112.1 ng/mL
- Bioavailability as source of dietary selenium ([4]; in vivo): more bioavailable source of dietary selenium than sodium selenite

SMILES: C[Se]CC[C@H](NC(N)=O)C(=O)O [Compound 3, N-Carbamoyl L-Selenomethionine]
- Solubility in water [1]: more soluble in water
- Stability of the solution relative to parent seleno-amino acid ([2]; solution in water): appears to be more stable than the parent seleno-amino acid

SMILES: C[Se]CC[C@H](N)C(=O)OC(C)C.Cl [Compound 1, L-Selenomethionine Isopropyl Ester Hydrochloride]
- Solubility in water [1]: readily soluble in water
- Stability relative to L-selenomethionine ([2]; in the solid state and in solution): significantly more stable than L-selenomethionine
